IC50 data for six molecules are collected here from ChEMBL document CHEMBL1135947, “Structure-based design and synthesis of HIV-1 protease inhibitors employing beta-D-mannopyranoside scaffolds” (Bioorg Med Chem Lett, 2002).

Structures are written as SMILES. pIC50: −log10 of the molar value.

The first assay addresses T1, Human immunodeficiency virus type 1 protease (Human immunodeficiency virus 1, UniProt Q72874). Kind of assay: Compound was tested for inhibitory activity against HIV-1 protease.
`COc1ccc(O[C@@H]2C(CNC(=O)OCc3ccccc3)O[C@@H](OC)[C@H](O)C2OCc2ccccc2)cc1` (stereo partly specified) showed a pIC50 of 5.35.

`CO[C@@H]1OC(CNC(=O)OCc2ccccc2)[C@@H](O)C(OCc2ccccc2)[C@H]1O` (stereo partly specified) had a pIC50 of 5.33.

In turn, `CO[C@@H]1OC2COC(c3ccccc3)O[C@H]2C(OCc2ccccc2)[C@H]1O` (stereo partly specified) gave a pIC50 of 5.31.

Take `COc1ccc(O[C@@H]2C(CNC(C)=O)O[C@@H](OC)[C@H](O)C2OCc2ccccc2)cc1` (stereo partly specified): the pIC50 is 5.11.

Turning to `CC(=O)NCC1O[C@@H](Oc2ccccc2)C(O)C(O)[C@@H]1O` (single isomer, unassigned), the pIC50 is 5.05.

In a further assay the target is T1, Human immunodeficiency virus type 1 protease. The assay can be described thus: Compound was tested for inhibitory activity against HIV-1 protease; Not active.
In the case of `CO[C@@H]1OC(CNC(=O)C(C)(C)C)[C@@H](O)C(O)[C@@H]1O` (stereo partly specified), the IC50 result is given as “Not Active”.

In general, pIC50 refers to the IC50 on a negative log10 scale, so that one unit is a factor of ten. The low end stands for a large IC50, the high end for a small IC50.
